In patent publication US20220169632A1, “METHODS AND MATERIALS FOR INCREASING OR MAINTAINING NICOTINAMIDE MONONUCLEOTIDE ADENYLYL TRANSFERASE-2 (NMNAT2) POLYPEPTIDE LEVELS” (University of Pittsburgh - Of the Commonwealth System of …, priority 2019, published 2022):

Tested on: NMNAT2
Test: NMNAT2-Hibit nano-luciferase activity in stably transfected U87MG cells, various concentrations, 24 hours
Type: cell-based
Settings: U87MG cells stably transfected with NMNAT2-Hibit luc plasmid
Protocol: Selected compounds were tested in vitro. U87MG cells were stably transfected with NMNAT2-Hibit luc plasmid. Cells were treated with a test compound at various concentrations for 24 hours. Cells were then collected and assayed for nano-luciferase activity.

SMILES	E: compound efficacy for NMNAT2 activation (concentration giving >25% increase in NMNAT2 luciferase activity)
Cc1c(C)n(Cc2cccc(F)c2)c2ccc(C(=O)NCCc3ccccc3)cc12 [BC20248]	++ (“++” >25% increase in NMNAT2 luciferase activity at >1 μM ≤25 μM.)
Cc1cccc(NC(=O)c2ccc3c(c2)c(C)c(C)n3Cc2cccc(F)c2)c1C [BC20249]	+++ (“+++” >25% increase in NMNAT2 luciferase activity at ≤1 μM.)
Cc1c(C)n(Cc2cccc(F)c2)c2ccc(C(=O)N3CCc4occc4C3)cc12 [BC20250]	++ (“++” >25% increase in NMNAT2 luciferase activity at >1 μM ≤25 μM.)
Cc1ccccc1Cn1c(C)c(C)c2cc(C(=O)NCCc3ccccc3)ccc21 [BC20251]	++ (“++” >25% increase in NMNAT2 luciferase activity at >1 μM ≤25 μM.)
Cc1ccc(C)c(Cn2c3c(c4ccccc42)CN(C(=O)NCC2CCCO2)CC3)c1 (centres unmarked) [BC20252]	+ (“+” >25% increase in NMNAT2 luciferase activity at >25 μM.)
Cc1ccc(C)c(Cn2c3c(c4ccccc42)CN(C(=O)NCc2cccc(F)c2)CC3)c1 [BC20253]	+ (“+” >25% increase in NMNAT2 luciferase activity at >25 μM.)
Cc1ccc(C)c(Cn2c3c(c4ccccc42)CN(C(=O)NCCc2ccccc2)CC3)c1 [BC20254]	++ (“++” >25% increase in NMNAT2 luciferase activity at >1 μM ≤25 μM.)
Cc1ccc(C)c(Cn2c3c(c4ccccc42)CN(C(=O)Nc2cccc(C)c2C)CC3)c1 [BC20255]	+ (“+” >25% increase in NMNAT2 luciferase activity at >25 μM.)
O=C(NCc1ccccc1F)C1CCc2c(c3ccccc3n2Cc2cccc(F)c2)C1 (centres unmarked) [BC20256]	+ (“+” >25% increase in NMNAT2 luciferase activity at >25 μM.)
O=C(c1ccco1)N1CCN(C(=O)C2CCc3c(c4ccccc4n3Cc3cccc(F)c3)C2)CC1 (centres unmarked) [BC20257]	+ (“+” >25% increase in NMNAT2 luciferase activity at >25 μM.)
O=C(NCc1cccnc1)C1CCc2c(c3ccccc3n2Cc2cccc(F)c2)C1 (centres unmarked) [BC20258]	++ (“++” >25% increase in NMNAT2 luciferase activity at >1 μM ≤25 μM.)
CCCCN(CC)Cc1ccc(CNC(=O)C2CCc3c(c4ccccc4n3Cc3cccc(F)c3)C2)o1 (centres unmarked) [BC20259]	+++ (“+++” >25% increase in NMNAT2 luciferase activity at ≤1 μM.)
O=C(C1CCc2c(c3ccccc3n2Cc2cccc(F)c2)C1)N1CCc2occc2C1 (centres unmarked) [BC20260]	++ (“++” >25% increase in NMNAT2 luciferase activity at >1 μM ≤25 μM.)
Cc1cccc(CN2CCc3cn(Cc4cc(C)ccc4C)c4cccc(c34)C2=O)c1 [BC20261]	+ (“+” >25% increase in NMNAT2 luciferase activity at >25 μM.)
O=C(Cn1c2c(c3ccccc31)CC(C(=O)NCCc1ccccc1)CC2)NCc1ccco1 (centres unmarked) [BC20262]	++ (“++” >25% increase in NMNAT2 luciferase activity at >1 μM ≤25 μM.)
Cc1c(C)n(Cc2ccccc2F)c2ccc(C(=O)N(CCCN3CCOCC3)Cc3ccco3)cc12 [BC20263]	++ (“++” >25% increase in NMNAT2 luciferase activity at >1 μM ≤25 μM.)
Cc1c(C)n(Cc2cccc(F)c2)c2ccc(C(=O)N(CCCN3CCOCC3)Cc3ccco3)cc12 [BC20264]	++ (“++” >25% increase in NMNAT2 luciferase activity at >1 μM ≤25 μM.)
Cc1c(C)n(Cc2cccc(F)c2)c2ccc(C(=O)NCc3cccnc3)cc12 [BC20265]	++ (“++” >25% increase in NMNAT2 luciferase activity at >1 μM ≤25 μM.)
CCCCN(CC)Cc1ccc(CNC(=O)c2ccc3c(c2)c(C)c(C)n3Cc2ccccc2C)o1 [BC20266]	++ (“++” >25% increase in NMNAT2 luciferase activity at >1 μM ≤25 μM.)
Cc1ccc(Cn2cc(C3CCN(Cc4ccncc4)C(=O)C3)c3ccccc32)cc1 (centres unmarked) [BC20267]	++ (“++” >25% increase in NMNAT2 luciferase activity at >1 μM ≤25 μM.)
Cc1ccc(Cn2cc(C3CCN(CCc4cccc(C)c4)C(=O)C3)c3ccccc32)cc1 (centres unmarked) [BC20268]	+ (“+” >25% increase in NMNAT2 luciferase activity at >25 μM.)
Cc1ccc(C)c(Cn2cc3c4c(cccc42)C(=O)N(Cc2ccccc2F)CC3)c1 [BC20269]	+ (“+” >25% increase in NMNAT2 luciferase activity at >25 μM.)
Cc1ccc(C)c(Cn2cc3c4c(cccc42)C(=O)N(Cc2cccc(F)c2)CC3)c1 [BC20270]	+ (“+” >25% increase in NMNAT2 luciferase activity at >25 μM.)
Cc1ccc(C)c(Cn2cc3c4c(cccc42)C(=O)N(Cc2ccccc2C)CC3)c1 [BC20271]	+ (“+” >25% increase in NMNAT2 luciferase activity at >25 μM.)

SMILES	E: compound efficacy for NMNAT2 activation (concentration giving >25% increase in NMNAT2 luciferase activity)
COc1ccc(CCN2CCc3cn(Cc4cc(C)ccc4C)c4cccc(c34)C2=O)cc1 [BC20272]	+ (“+” >25% increase in NMNAT2 luciferase activity at >25 μM.)
Cc1ccc(C)c(Cn2cc3c4c(cccc42)C(=O)N(CCc2ccccc2C)CC3)c1 [BC20273]	+ (“+” >25% increase in NMNAT2 luciferase activity at >25 μM.)
O=C1c2cccc3c2c(cn3Cc2cccc(F)c2)CCN1Cc1ccccc1F [BC20274]	+ (“+” >25% increase in NMNAT2 luciferase activity at >25 μM.)
O=C1c2cccc3c2c(cn3Cc2cccc(F)c2)CCN1Cc1cccc(F)c1 [BC20275]	+ (“+” >25% increase in NMNAT2 luciferase activity at >25 μM.)
Cc1cccc(CN2CCc3cn(Cc4cccc(F)c4)c4cccc(c34)C2=O)c1 [BC20276]	+ (“+” >25% increase in NMNAT2 luciferase activity at >25 μM.)
O=C1c2cccc3c2c(cn3Cc2cccc(F)c2)CCN1Cc1ccncc1 [BC20277]	+ (“+” >25% increase in NMNAT2 luciferase activity at >25 μM.)
COc1ccc(CCN2CCc3cn(Cc4cccc(F)c4)c4cccc(c34)C2=O)cc1 [BC20278]	+ (“+” >25% increase in NMNAT2 luciferase activity at >25 μM.)
Cc1ccc(CNC(=O)C2CCc3c(c4ccccc4n3Cc3ccncc3)C2)o1 (centres unmarked) [BC20279]	+ (“+” >25% increase in NMNAT2 luciferase activity at >25 μM.)
Cc1ccccc1CNC(=O)C1CCc2c(c3ccccc3n2Cc2ccncc2)C1 (centres unmarked) [BC20280]	+ (“+” >25% increase in NMNAT2 luciferase activity at >25 μM.)
Cc1cccc(CNC(=O)C2CCc3c(c4ccccc4n3Cc3ccncc3)C2)c1 (centres unmarked) [BC20281]	+ (“+” >25% increase in NMNAT2 luciferase activity at >25 μM.)
COc1ccccc1CNC(=O)C1CCc2c(c3ccccc3n2Cc2ccncc2)C1 (centres unmarked) [BC20282]	+ (“+” >25% increase in NMNAT2 luciferase activity at >25 μM.)
COc1cccc(CNC(=O)C2CCc3c(c4ccccc4n3Cc3ccncc3)C2)c1 (centres unmarked) [BC20283]	+ (“+” >25% increase in NMNAT2 luciferase activity at >25 μM.)
O=C(NCCc1ccccc1)C1CCc2c(c3ccccc3n2Cc2ccncc2)C1 (centres unmarked) [BC20284]	+ (“+” >25% increase in NMNAT2 luciferase activity at >25 μM.)
Cc1ccc(CNC(=O)Cn2c3c(c4ccccc42)CC(C(=O)NCc2ccco2)CC3)o1 (centres unmarked) [BC20285]	++ (“++” >25% increase in NMNAT2 luciferase activity at >1 μM ≤25 μM.)
O=C(Cn1c2c(c3ccccc31)CC(C(=O)NCc1ccco1)CC2)NCc1cccc(F)c1 (centres unmarked) [BC20286]	++ (“++” >25% increase in NMNAT2 luciferase activity at >1 μM ≤25 μM.)
Cc1ccccc1CNC(=O)Cn1c2c(c3ccccc31)CC(C(=O)NCc1ccco1)CC2 (centres unmarked) [BC20287]	++ (“++” >25% increase in NMNAT2 luciferase activity at >1 μM ≤25 μM.)
Cc1cccc(CNC(=O)Cn2c3c(c4ccccc42)CC(C(=O)NCc2ccco2)CC3)c1 (centres unmarked) [BC20288]	++ (“++” >25% increase in NMNAT2 luciferase activity at >1 μM ≤25 μM.)
COc1ccccc1CNC(=O)Cn1c2c(c3ccccc31)CC(C(=O)NCc1ccco1)CC2 (centres unmarked) [BC20289]	+ (“+” >25% increase in NMNAT2 luciferase activity at >25 μM.)
COc1cccc(CNC(=O)Cn2c3c(c4ccccc42)CC(C(=O)NCc2ccco2)CC3)c1 (centres unmarked) [BC20290]	+ (“+” >25% increase in NMNAT2 luciferase activity at >25 μM.)
O=C(Cn1c2c(c3ccccc31)CC(C(=O)NCc1ccco1)CC2)NCCc1ccccc1 (centres unmarked) [BC20291]	++ (“++” >25% increase in NMNAT2 luciferase activity at >1 μM ≤25 μM.)
O=C(Cn1c2c(c3ccccc31)CC(C(=O)NCc1ccco1)CC2)NCc1cccnc1 (centres unmarked) [BC20292]	++ (“++” >25% increase in NMNAT2 luciferase activity at >1 μM ≤25 μM.)
COc1ccc(CN2CC(C(=O)c3cn(Cc4ccccc4F)c4ccccc34)CC2=O)c(OC)c1 (centres unmarked) [BC20304]	+ (“+” >25% increase in NMNAT2 luciferase activity at >25 μM.)
COC(=O)c1ccc2c(c1)c(C)c(C)n2Cc1ccccc1C [BC20305]	+ (“+” >25% increase in NMNAT2 luciferase activity at >25 μM.)
